In patent publication US20230279053A1 (priority 2020, published 2023):

Assays:
[1] = biological target: T1, Human GLP-1R (Homo sapiens, UniProt P43220); assay: Functional antagonism of human GLP1 receptors, cAMP accumulation assay; format: cell-based; settings: HEK cells infected with GLP-1R Bacmam; stimulated with EC80 of GLP-1(7-36) amide; HiRange cAMP kit; IC50 corrected by Cheng-Prusoff adaptation
T1 construct: expressed in transfected cells; host or cells: HEK cells, BacMam transduction
Method: The method followed a two-step protocol provided in the kit. In brief, HEK cells infected with 1% v/v GLP-1R Bacmam for 24 h were harvested using cell dissociation solution (Gibco), centrifuged and resuspended in the assay buffer (HBSS (Lonza) supplemented with 0.5 mM IBMX (Tocris)). DMSO stock of test compounds were serially diluted in the assay buffer and added to 96-well half area white plates (Costar). Final DMSO concentration in the assay was 0.3%. 20K cells per well were added to plates followed by 30 min incubation (humidified air (5% CO2), 37° C.). […] Intracellular accumulation of cAMP was stopped by addition of the HTRF detection reagents in lysis buffer, provided in the kit. Following 1-hour incubation at RT, plates were read on Pherastar FS (BMG Labtech, Inc.) Dotmatics Studies software was used for fitting data to a four-parameter concentration response curve. Calculated IC50 values were corrected for the agonist concentration using an adaptation of the Cheng-Prusoff equation to generate functional pKb values: […]

[2] = biological target: T2, Mouse GLP-1R (Mus musculus, UniProt O35659); assay: Functional antagonism of mouse GLP1 receptors, cAMP accumulation assay; format: cell-based; settings: CHO-K1 cells stably expressing mouse GLP-1R; stimulated with EC80 of Exendin-4; HitHunter cAMP assay; IC50 corrected by Cheng-Prusoff adaptation
T2 construct: expressed in transfected cells
T2 sequence (O35659 22-463): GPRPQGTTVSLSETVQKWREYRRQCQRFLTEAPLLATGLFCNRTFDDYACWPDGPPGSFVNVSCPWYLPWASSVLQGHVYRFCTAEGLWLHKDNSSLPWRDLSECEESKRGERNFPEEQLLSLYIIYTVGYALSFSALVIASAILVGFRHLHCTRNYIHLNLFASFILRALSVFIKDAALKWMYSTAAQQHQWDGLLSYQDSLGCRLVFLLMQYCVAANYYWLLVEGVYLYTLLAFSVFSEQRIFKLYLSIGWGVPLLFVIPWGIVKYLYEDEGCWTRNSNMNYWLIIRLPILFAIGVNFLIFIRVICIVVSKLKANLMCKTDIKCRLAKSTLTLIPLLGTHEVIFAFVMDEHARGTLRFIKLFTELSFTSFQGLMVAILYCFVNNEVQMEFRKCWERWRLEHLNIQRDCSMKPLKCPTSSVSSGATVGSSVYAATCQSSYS
Method: Antagonist inhibition of cAMP production upon stimulation of GLP-1R with agonist ligand was assessed using HitHunter cAMP assay (DiscoverX). The method followed antagonist procedure steps provided in the kit. In brief, CHO-K1 cells stably expressing mouse GLP-1R were thawed and plated at 10K cells per well in CP05 reagent in the total volume of 20 μl into white walled, 384-well plates and incubated overnight at 37° C. in Cytomat. On the day of the assay, the media was replaced with 15 μl of HBSS/10 mM HEPES. DMSO stock of test compounds were serially diluted in DMSO and then further diluted in the HBSS/10 mM HEPES, 5 μl of each concentration were added to the plate followed by 30 min incubation at 37° C. Final DMSO concentration in the assay was 1%. Cells were stimulated for further 30 min at 37° C. by addition of an equivalent to EC80 concentration of Exendin-4. Intracellular accumulation of cAMP was stopped by addition of the HitHunter detection reagents in lysis buffer, provided in the kit. Following 1-hour incubation at RT in the dark, plates were read on Envision (Perkin Elmer). Dotmatics Studies software was used for fitting data to a four-parameter concentration response curve. Calculated IC50 values were corrected for the agonist concentration using an adaptation of the Cheng-Prusoff equation to generate functional pKb values: […]

T1 sequence (P43220 24-463): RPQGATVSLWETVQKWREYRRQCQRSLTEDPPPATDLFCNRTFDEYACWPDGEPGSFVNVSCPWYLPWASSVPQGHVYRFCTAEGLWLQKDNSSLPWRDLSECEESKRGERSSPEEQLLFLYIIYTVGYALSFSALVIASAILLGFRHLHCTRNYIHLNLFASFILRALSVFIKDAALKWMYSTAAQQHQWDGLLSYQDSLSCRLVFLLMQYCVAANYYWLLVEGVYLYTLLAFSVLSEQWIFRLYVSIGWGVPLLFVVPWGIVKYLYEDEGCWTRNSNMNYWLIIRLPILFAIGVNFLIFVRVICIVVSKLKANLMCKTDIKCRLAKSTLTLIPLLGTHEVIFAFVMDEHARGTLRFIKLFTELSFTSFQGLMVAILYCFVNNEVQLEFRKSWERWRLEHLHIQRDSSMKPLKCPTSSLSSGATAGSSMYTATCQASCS

Substance: exendin(9-39)amide [Ex 9-39]
- Human GLP-1R antagonist cAMP fpKb [1]: 7.8
- Mouse GLP-1R antagonist cAMP fpKb [2]: 7.2
